This note sets out measurements from article PMC4980693, “TRPV4 regulates calcium homeostasis, cytoskeletal remodeling, conventional outflow and intraocular pressure in the mammalian eye” (Scientific Reports, 2016).

The target of assay [1] is T1, TRPV4 (transient receptor potential vanilloid 4) (Homo sapiens, UniProt Q9HBA0). In words: whole-cell patch clamp and Fura-2 Ca2+ imaging in human trabecular meshwork cells (endogenous channel), agonist. The class given is cell-based.
The target of assay [2] is T1, TRPV4 (transient receptor potential vanilloid 4). In words: inhibition of GSK101 ([…])-induced Ca2+ signals in human trabecular meshwork cells (Fura-2); putative prodrug analog of HC-067047. The class given is cell-based.

Each structure is given as a SMILES string.

T1 sequence (Q9HBA0 whole entry): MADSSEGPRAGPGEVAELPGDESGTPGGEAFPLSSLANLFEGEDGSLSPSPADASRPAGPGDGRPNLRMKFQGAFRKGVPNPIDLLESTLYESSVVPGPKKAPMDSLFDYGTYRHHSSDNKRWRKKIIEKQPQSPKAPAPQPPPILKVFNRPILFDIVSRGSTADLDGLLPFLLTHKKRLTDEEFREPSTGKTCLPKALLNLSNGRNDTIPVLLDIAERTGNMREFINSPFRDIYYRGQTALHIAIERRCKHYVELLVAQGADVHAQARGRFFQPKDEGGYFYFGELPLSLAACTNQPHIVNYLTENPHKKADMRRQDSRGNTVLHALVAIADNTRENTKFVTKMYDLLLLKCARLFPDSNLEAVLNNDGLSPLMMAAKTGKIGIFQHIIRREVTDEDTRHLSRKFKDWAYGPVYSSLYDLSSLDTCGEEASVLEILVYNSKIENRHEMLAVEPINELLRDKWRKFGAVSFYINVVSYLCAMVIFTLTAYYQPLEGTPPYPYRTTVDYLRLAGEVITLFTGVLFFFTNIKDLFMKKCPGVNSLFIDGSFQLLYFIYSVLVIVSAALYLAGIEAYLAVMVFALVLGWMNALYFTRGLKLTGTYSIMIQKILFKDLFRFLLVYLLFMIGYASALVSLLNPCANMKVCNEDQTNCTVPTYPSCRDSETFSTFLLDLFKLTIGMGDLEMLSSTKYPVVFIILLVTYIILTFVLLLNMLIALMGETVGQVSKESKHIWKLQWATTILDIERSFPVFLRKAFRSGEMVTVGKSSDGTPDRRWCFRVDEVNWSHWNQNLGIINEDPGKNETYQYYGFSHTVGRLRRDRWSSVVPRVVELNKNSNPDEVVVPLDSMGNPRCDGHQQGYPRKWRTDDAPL

For `CC(C)C[C@H](NC(=O)c1cc2ccccc2s1)C(=O)N1CCN(C(=O)[C@H](CO)NS(=O)(=O)c2ccc(Cl)cc2Cl)CC1` [GSK101, GSK1016790A], in assay [1], the EC50 (commonly the concentration that produces a half-maximal response) is roughly 25 nM. Turning to `Cc1c(C(=O)Nc2cccc(C(=O)OC(C)C)c2)cc(-c2ccccc2)n1CCCN1CCOCC1` [YX-02, isopropyl 3-(2-methyl-1-(3-morpholinopropyl)-5-phenyl-1H-pyrrole-3-carboxamido)benzoate], in assay [2], the concentration for half-maximal inhibition (IC50) (in general, the concentration that gives 50% inhibition) turned out to be 740 ± 40 nM.
